Measured values reported in ChEMBL document CHEMBL4311981, “Synthesis, anticancer activity, and molecular modeling of 1,4-naphthoquinones that inhibit MKK7 and Cdc25” (Eur J Med Chem, 2019).
Calls of active or inactive are those of the source. The rule behind the calls is not given here.

Experiments:
[1] = target: T1, Dual specificity mitogen-activated protein kinase kinase 7 (Homo sapiens) (UniProt O14733); assay: Binding affinity to MKK7 (unknown origin) expressed in HEK293 cells assessed as dissociation constant at <30 uM by kinomescan method; type: cell-based
T1 sequence (whole entry): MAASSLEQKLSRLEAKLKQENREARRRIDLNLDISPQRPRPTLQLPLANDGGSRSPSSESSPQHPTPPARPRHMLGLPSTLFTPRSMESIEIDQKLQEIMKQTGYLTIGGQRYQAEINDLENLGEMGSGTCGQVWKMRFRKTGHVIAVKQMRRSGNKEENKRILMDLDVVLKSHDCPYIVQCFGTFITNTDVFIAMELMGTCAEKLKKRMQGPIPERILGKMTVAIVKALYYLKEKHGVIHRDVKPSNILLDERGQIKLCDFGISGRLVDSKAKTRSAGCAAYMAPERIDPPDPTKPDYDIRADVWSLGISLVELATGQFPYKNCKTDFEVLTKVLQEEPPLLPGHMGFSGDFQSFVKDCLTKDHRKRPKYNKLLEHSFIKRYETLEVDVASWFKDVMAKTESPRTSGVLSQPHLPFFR

[2] = system: SW982; assay: Cytotoxicity against human SW982 cells assessed as reduction in cell viability incubated for 24 hrs by CellTiter-Glo luminescent cell viability assay; type: functional, cell-based; conditions: SW982, 24 h
[3] = system: U-937; assay: Cytotoxicity against human U937 cells assessed as reduction in cell viability incubated for 24 hrs by CellTiter-Glo luminescent cell viability assay; type: functional, cell-based; conditions: U-937, 24 h
[4] = system: PBMC; assay: Cytotoxicity against human PBMC cells assessed as reduction in cell viability incubated for 24 hrs by CellTiter-Glo luminescent cell viability assay; type: cell-based
[5] = system: THP-1; assay: Cytotoxicity against human THP1 cells assessed as reduction in cell viability incubated for 24 hrs by CellTiter-Glo luminescent cell viability assay; type: functional, cell-based; conditions: THP-1, 24 h
[6] = system: MONO-MAC-6; assay: Cytotoxicity against human MONO-MAC-6 cells assessed as reduction in cell viability incubated for 24 hrs by CellTiter-Glo luminescent cell viability assay; type: functional, cell-based; conditions: MONO-MAC-6, 24 h
[7] = system: HL-60; assay: Cytotoxicity against human HL60 cells assessed as reduction in cell viability incubated for 24 hrs by CellTiter-Glo luminescent cell viability assay; type: functional, cell-based; conditions: for IC50: HL-60, 24 h
[8] = system: MCF7; assay: Cytotoxicity against human MCF7 cells assessed as reduction in cell viability incubated for 24 hrs by CellTiter-Glo luminescent cell viability assay; type: functional, cell-based; conditions: MCF7, 24 h
[9] = system: LS174T; assay: Cytotoxicity against human LS174T cells assessed as reduction in cell viability incubated for 24 hrs by CellTiter-Glo luminescent cell viability assay; type: functional, cell-based
[10] = system: A549; assay: Cytotoxicity against human A549 cells assessed as reduction in cell viability incubated for 24 hrs by CellTiter-Glo luminescent cell viability assay; type: functional, cell-based; conditions: for IC50: A549, 24 h
[11] = target: T2, Neutrophil elastase (Homo sapiens) (UniProt P08246); assay: Inhibition of recombinant HNE (unknown origin) at <50 uM using N-methylsuccinyl-Ala-Ala-Pro-Val-7-amino-4-methylcoumarin, as a substrate measured every 30 sec for 10 mins by fluorometric assay
T2 sequence (whole entry): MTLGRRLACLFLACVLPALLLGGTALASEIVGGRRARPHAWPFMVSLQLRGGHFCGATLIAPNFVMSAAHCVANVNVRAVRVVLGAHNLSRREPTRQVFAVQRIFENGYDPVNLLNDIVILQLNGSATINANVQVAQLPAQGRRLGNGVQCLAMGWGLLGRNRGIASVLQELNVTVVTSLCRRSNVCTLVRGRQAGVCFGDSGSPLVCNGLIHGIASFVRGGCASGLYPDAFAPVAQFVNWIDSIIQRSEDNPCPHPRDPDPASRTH

[12] = target: T3, M-phase inducer phosphatase 1 (Homo sapiens, UniProt P30304)
T3 sequence (P30304 whole entry): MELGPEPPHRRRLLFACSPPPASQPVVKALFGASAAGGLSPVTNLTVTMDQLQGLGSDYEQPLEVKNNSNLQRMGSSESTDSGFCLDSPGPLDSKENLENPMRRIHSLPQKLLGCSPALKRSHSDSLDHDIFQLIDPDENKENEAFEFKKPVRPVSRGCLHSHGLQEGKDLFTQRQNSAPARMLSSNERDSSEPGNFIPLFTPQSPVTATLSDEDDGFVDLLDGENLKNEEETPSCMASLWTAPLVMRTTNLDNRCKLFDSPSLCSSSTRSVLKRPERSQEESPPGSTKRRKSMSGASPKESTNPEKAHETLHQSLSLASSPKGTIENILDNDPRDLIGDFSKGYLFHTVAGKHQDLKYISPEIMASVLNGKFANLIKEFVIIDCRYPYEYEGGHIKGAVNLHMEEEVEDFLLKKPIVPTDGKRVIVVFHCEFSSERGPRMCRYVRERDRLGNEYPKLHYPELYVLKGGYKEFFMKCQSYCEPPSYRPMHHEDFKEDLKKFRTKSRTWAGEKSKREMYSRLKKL

[13] = target: T4, M-phase inducer phosphatase 2 (Homo sapiens, UniProt P30305)
T4 sequence (P30305 whole entry): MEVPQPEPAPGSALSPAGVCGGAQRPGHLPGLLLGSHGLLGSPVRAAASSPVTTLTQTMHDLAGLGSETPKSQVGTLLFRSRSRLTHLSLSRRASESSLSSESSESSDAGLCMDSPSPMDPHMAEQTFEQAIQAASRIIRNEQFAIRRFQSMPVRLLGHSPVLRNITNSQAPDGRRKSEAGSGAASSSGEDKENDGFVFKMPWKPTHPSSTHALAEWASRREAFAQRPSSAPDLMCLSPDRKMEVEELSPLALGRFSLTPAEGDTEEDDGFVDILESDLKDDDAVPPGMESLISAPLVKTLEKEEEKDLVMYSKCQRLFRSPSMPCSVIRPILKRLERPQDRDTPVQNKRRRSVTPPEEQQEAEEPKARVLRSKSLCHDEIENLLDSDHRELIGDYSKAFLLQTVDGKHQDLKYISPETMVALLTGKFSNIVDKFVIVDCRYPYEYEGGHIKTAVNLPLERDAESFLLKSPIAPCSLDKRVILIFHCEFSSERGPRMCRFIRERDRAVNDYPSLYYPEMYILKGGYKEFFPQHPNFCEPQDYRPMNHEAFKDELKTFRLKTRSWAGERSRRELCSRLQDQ

[14] = system: Jurkat; assay: cells; conditions: Homo sapiens, 24 h
[15] = target: T5, Dual specificity mitogen-activated protein kinase kinase 7 (Homo sapiens, UniProt O14733); assay: biochemical
T5 sequence (O14733 whole entry): T1 sequence (whole entry)

| Activity [1] | Structure (SMILES) | IC50 [2] | IC50 [3] | IC50 [5] | IC50 [6] | IC50 [7] | IC50 [8] | IC50 [9] | IC50 [10] | inhibition [11] | IC50 [12] | IC50 [13] | IC50 [14] | also measured |
| --- | --- | --- | --- | --- | --- | --- | --- | --- | --- | --- | --- | --- | --- | --- |
| inactive | O=C(O)CCCc1nc2ccccc2c(=O)[nH]1 |  |  |  |  |  |  |  |  |  |  |  |  |  |
| inactive | Cn1c(SCCC(=O)O)nc2ccccc2c1=O |  |  |  |  |  |  |  |  |  |  |  |  |  |
|  | CCN(CC)CCNC(=O)c1c(C)[nH]c(/C=C2\C(=O)Nc3ccc(F)cc32)c1C [SUNITINIB] | 41.2 µM | 13.7 µM |  |  |  |  |  |  |  |  |  |  | IC50 [4]: 46.3 µM |
|  | CC1=C(SC(C)C)C(=O)c2ccccc2C1=O | 12.8 µM | 8.9 µM | 3.6 µM | 2 µM | 4.3 µM | 16.8 µM | 20.8 µM | 24 µM | inactive | 6.3 µM | 9.1 µM | 4.7 µM | Kd [15]: 13 µM |
|  | COCCSC1=C(C)C(=O)c2ccccc2C1=O | 9.7 µM | 5.3 µM | 2.2 µM | 1.7 µM | 1.6 µM | 14.9 µM | 15.7 µM | 18.6 µM | inactive | 5.7 µM | 6.5 µM | 3.2 µM | Kd [15]: 14 µM |
|  | CC1=CC(=O)c2c(O)cccc2C1=O |  |  |  |  |  |  |  |  | inactive |  |  |  |  |
|  | O=C(O)CSC1=CC(=O)c2ccccc2C1=O | 11.1 µM | 15.9 µM |  | 23.2 µM | 20.4 µM |  |  | 22.9 µM | inactive | 0.05 µM | 1 µM | 0.94 µM | Activity [10]: inactive; Kd [15]: 1.4 µM |
|  | O=C(O)CCNC1=C(Cl)C(=O)c2ccccc2C1=O |  |  |  |  |  |  |  |  | inactive | 26.1 µM | 28.8 µM |  | inhibition [1]: inactive |
|  | O=C1C(O)=C(CN(CCCl)CCCl)C(=O)c2ccccc21 |  |  |  |  |  |  |  |  |  | 15.4 µM |  |  |  |
|  | CSC1=C(SC)C(=O)c2ccccc2C1=O | 7.6 µM |  | 1.7 µM |  | 0.7 µM | 7.4 µM | 15.1 µM | 12.4 µM | inactive |  |  | 1.4 µM |  |
|  | O=C(O)c1ccc(NC2=C(Cl)C(=O)c3ccccc3C2=O)cc1 | 4.6 µM | 3.9 µM | 5.6 µM | 6 µM | 8.9 µM | 14.5 µM | 9.9 µM | 17.6 µM | inactive | 2.4 µM | 4.9 µM | 5.5 µM | IC50 ([4]; read-out: IC50): 13.1 µM; inhibition [1]: inactive |
|  | CCSC1=C(C)C(=O)c2ccccc2C1=O | 7.8 µM | 6.7 µM | 2.9 µM | 3.3 µM | 3.1 µM | 12.2 µM | 17.3 µM | 21.5 µM | inactive | 5.5 µM | 4.7 µM | 3.9 µM | Kd [15]: 13 µM |
|  | CC1=C(SCCC(=O)O)C(=O)c2ccccc2C1=O |  |  |  |  |  |  |  |  | inactive | 5.1 µM |  |  | Kd [15]: 15 µM |
|  | COC(=O)c1ccc(NC2=C(N3CCCCC3)C(=O)c3ccccc3C2=O)cc1 |  |  |  |  |  |  |  |  | inactive | 11.6 µM | 14.2 µM |  | inhibition [1]: inactive |
| inactive | Nn1c(CCC(=O)O)nc2ccccc2c1=O |  |  |  |  |  |  |  |  |  |  |  |  |  |
| inactive | O=C(O)CSc1nc(O)c2ccccc2n1 |  |  |  |  |  |  |  |  |  |  |  |  |  |
| inactive | O=C(O)CCSc1nc(O)c2ccccc2n1 |  |  |  |  |  |  |  |  |  |  |  |  |  |
|  | COC(=O)c1ccc(NC2=C(Cl)C(=O)c3ccccc3C2=O)cc1 |  |  |  |  |  |  |  |  | inactive | 20.3 µM | 10.9 µM |  | inhibition [1]: inactive |
| inactive | O=C(O)CCNC(=O)Cn1cnc2ccccc2c1=O |  |  |  |  |  |  |  |  |  |  |  |  |  |
|  | O=C(O)CCCCCNC1=C(Cl)C(=O)c2ccccc2C1=O |  |  |  |  |  |  |  |  | inactive | 36.4 µM | 23.7 µM |  | inhibition [1]: inactive |
|  | O=C(O)CCSC1=CC(=O)c2ccccc2C1=O | 10.5 µM | 18.6 µM | 17.6 µM | 22 µM | 15 µM |  |  |  | inactive | 1.5 µM | 1.6 µM | 9.1 µM | IC50 ([4]; read-out: IC50): 23.4 µM; Kd [15]: 0.23 µM |
|  | O=C(O)CCCNC1=C(Cl)C(=O)c2ccccc2C1=O |  |  |  |  |  |  |  |  | inactive | 8.2 µM | 10.9 µM |  | inhibition [1]: inactive |

| Structure (SMILES) | Activity [1] | IC50 [2] | IC50 [3] | IC50 [5] | IC50 [6] | IC50 [7] | IC50 [8] | IC50 [9] | IC50 [10] | inhibition [11] | IC50 [12] | IC50 [13] | IC50 [14] | also measured |
| --- | --- | --- | --- | --- | --- | --- | --- | --- | --- | --- | --- | --- | --- | --- |
| CC1=CC(=O)c2ccccc2C1=O [MENADIONE] | inactive | 9.3 µM | 6.3 µM |  |  | 5.6 µM | 9 µM | 26.6 µM | 25.1 µM | inactive | 6.9 µM | 3.9 µM | 5 µM | IC50 ([4]; read-out: IC50): 14.5 µM |
| CC(C)=CC[C@@H](O)C1=CC(=O)c2c(O)ccc(O)c2C1=O [SHIKONIN] | inactive | 2.8 µM | 1.2 µM | 0.82 µM | 2.6 µM |  | 2.7 µM | 8.9 µM | 7.3 µM | inactive | 0.22 µM |  | 0.97 µM | Activity [7]: Dose-dependent effect; IC50 ([4]; read-out: IC50): 5 µM |
| COC1=CC(=O)c2ccccc2C1=O [2-Methoxy-1,4-naphthoquinone] | inactive | 29.8 µM | 13.9 µM | 16.6 µM | 4.8 µM | 7.1 µM | 6.1 µM | 33.7 µM | 16.4 µM | inactive | 2.3 µM | 46.8 µM | 16.1 µM | IC50 ([4]; read-out: IC50): 29.8 µM |
| CC1=C(SCCO)C(=O)c2ccccc2C1=O | inactive | 19.3 µM | 12.1 µM | 3.9 µM | 6.3 µM | 9.3 µM | 30.9 µM | 39.4 µM | 41.3 µM | inactive | 4.5 µM | 10.9 µM | 6.8 µM | IC50 ([4]; read-out: IC50): 13.3 µM |
